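Interpolation was linear, between the two tested concentrations surrounding the appropriate level; five concentrations were tested over 48 hours in 96-well plates. GI50 marks 50% less growth.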 Active and inactive are the calls of the source. Rule as the data show it: active = GI50 up to about 1.1 µM and inactive = higher.
Columns and labels:
Experiment in all cases: growth of human tumour cells (NCI), 48 h
[1] = test system: MDA-MB-231
[2] = test system: BT-549
[3] = test system: SK-OV-3
[4] = test system: 786-0
[5] = test system: SK-MEL-5
[6] = test system: OVCAR-5
[7] = test system: U-251
[8] = test system: LOX IMVI
[9] = test system: OVCAR-8
[10] = test system: COLO 205
[11] = test system: TK-10
[12] = test system: HCT-116
[13] = test system: SW-620
[14] = test system: SF-295
[15] = test system: SF-268
[16] = test system: T47D
[17] = test system: OVCAR-4
[18] = test system: CAKI-1
[19] = test system: HT-29
[20] = test system: NCI/ADR-RES
[21] = test system: RXF 393
[22] = test system: NCI-H226
[23] = test system: MDA-N
[24] = test system: A498
[25] = test system: ACHN
[26] = test system: HOP-92
[27] = test system: DU-145
[28] = test system: SN12C
[29] = test system: SNB-75
[30] = test system: MDA-MB-435
[31] = test system: OVCAR-3
[32] = test system: EKVX
[33] = test system: RPMI-8226
[34] = test system: HOP-62
[35] = test system: NCI-H23
[36] = test system: SF-539
[37] = test system: Malme-3M
[38] = test system: KM12
[39] = test system: UACC-257
[40] = test system: HCT-15
[41] = test system: MOLT-4
[42] = test system: NCI-H522
[43] = test system: SNB-19
[44] = test system: HCC 2998
[45] = test system: UACC-62
[46] = test system: SR
[47] = test system: M14
[48] = test system: PC-3
[49] = test system: HL-60
[50] = test system: NCI-H460
[51] = test system: SK-MEL-2
[52] = test system: CCRF-CEM
[53] = test system: A549
[54] = test system: UO-31
[55] = test system: K562
[56] = test system: MCF7
[57] = test system: IGROV-1
[58] = test system: SK-MEL-28

With `O=C(Nc1nc2ccc([N+](=O)[O-])cc2s1)c1cc([N+](=O)[O-])ccc1Cl` the GI50 [1] was 2.55 µM (inactive), the GI50 [2] was 2.24 µM (inactive) and the GI50 [3] was 2.94 µM (inactive). The GI50 [4] was 2.75 µM (inactive), the GI50 [5] was 1.41 µM (inactive) and the GI50 [6] was 4.26 µM (inactive). For the same compound, the GI50 [7] was 2.95 µM (inactive), the GI50 [8] was 2.05 µM (inactive) and the GI50 [9] was 2.85 µM (inactive). For the same compound, the GI50 [10] was 1.68 µM (inactive), the GI50 [11] was 3.8 µM (inactive) and the GI50 [12] was 1.71 µM (inactive). For the same compound, the GI50 [13] was 2.29 µM (inactive), the GI50 [14] was 3.4 µM (inactive) and the GI50 [15] was 3.41 µM (inactive). For the same compound, the GI50 [16] was 3.57 µM (inactive), the GI50 [17] was 5.27 µM (inactive) and the GI50 [18] was 4.51 µM (inactive). The GI50 [19] was 2.48 µM (inactive), the GI50 [20] was 1.91 µM (inactive) and the GI50 [21] was 3.69 µM (inactive). For the same compound, the GI50 [22] was 1.31 µM (inactive), the GI50 [23] was 1.48 µM (inactive) and the GI50 [24] was 2.21 µM (inactive). The GI50 [25] was 3.2 µM (inactive), the GI50 [26] was 0.675 µM (active) and the GI50 [27] was 3.75 µM (inactive). For the same compound, the GI50 [28] was 1.52 µM (inactive), the GI50 [29] was 2.22 µM (inactive) and the GI50 [30] was 4.04 µM (inactive). The GI50 [31] was 1.59 µM (inactive), the GI50 [32] was 2.81 µM (inactive) and the GI50 [33] was 0.989 µM (active). For the same compound, the GI50 [34] was 3 µM (inactive), the GI50 [35] was 2.3 µM (inactive) and the GI50 [36] was 2.68 µM (inactive). The GI50 [37] was 3.01 µM (inactive), the GI50 [38] was 3.4 µM (inactive) and the GI50 [39] was 3.23 µM (inactive). For the same compound, the GI50 [40] was 1.93 µM, the GI50 [41] was 3.21 µM (inactive) and the GI50 [42] was 1.68 µM (inactive).

With `CC(=O)NC1(c2cc3ccccc3s2)CCCCCC1` the GI50 [1] was 40.4 µM (inactive), the GI50 [2] was 58.9 µM (inactive) and the GI50 [3] was 37.1 µM (inactive). The GI50 [4] was 34.7 µM (inactive), the GI50 [43] was 74.5 µM (inactive) and the GI50 [44] was 61.2 µM (inactive). For the same compound, the GI50 [5] was 27.1 µM (inactive), the GI50 [6] was 36.7 µM (inactive) and the GI50 [7] was 40.8 µM (inactive). The GI50 [8] was 47.9 µM (inactive), the GI50 [45] was 31.3 µM (inactive) and the GI50 [9] was 50.9 µM (inactive). The GI50 [10] was 22 µM (inactive), the GI50 [11] was 47.5 µM (inactive) and the GI50 [46] was 28.4 µM (inactive). For the same compound, the GI50 [12] was 35.3 µM (inactive), the GI50 [13] was 47.1 µM (inactive) and the GI50 [14] was 33.7 µM (inactive). The GI50 [47] was 42 µM (inactive), the GI50 [15] was 21.3 µM (inactive) and the GI50 [48] was 27.4 µM (inactive). The GI50 [17] was 38.5 µM (inactive), the GI50 [18] was 52.6 µM (inactive) and the GI50 [19] was 34.3 µM (inactive). The GI50 [20] was 38.3 µM (inactive), the GI50 [49] was 23.4 µM (inactive) and the GI50 [21] was 29.6 µM (inactive). The GI50 [50] was 36.6 µM (inactive), the GI50 [22] was 42.3 µM (inactive) and the GI50 [23] was 48.4 µM (inactive). The GI50 [51] was 33 µM (inactive), the GI50 [24] was 43.4 µM (inactive) and the GI50 [25] was 43.9 µM (inactive). For the same compound, the GI50 [52] was 20.7 µM (inactive), the GI50 [53] was 38.9 µM (inactive) and the GI50 [26] was 59.3 µM (inactive). For the same compound, the GI50 [27] was 51.3 µM (inactive), the GI50 [54] was 37.2 µM (inactive) and the GI50 [28] was 42.3 µM (inactive). The GI50 [29] was 31 µM (inactive), the GI50 [30] was 35.5 µM (inactive) and the GI50 [31] was 21.6 µM (inactive). For the same compound, the GI50 [32] was 19.1 µM (inactive), the GI50 [55] was 23.8 µM (inactive) and the GI50 [34] was 46.7 µM (inactive). The GI50 [35] was 35.2 µM (inactive), the GI50 [36] was 51.5 µM (inactive) and the GI50 [38] was 41.8 µM (inactive). For the same compound, the GI50 [56] was 37.2 µM (inactive), the GI50 [39] was 40 µM (inactive) and the GI50 [40] was 33.7 µM. For the same compound, the GI50 [41] was 18.5 µM (inactive), the GI50 [57] was 66.4 µM (inactive) and the GI50 [58] was 54 µM (inactive). The GI50 [42] was 20.7 µM (inactive).

For `Sc1nnc(-c2ccccc2Nc2ccccc2-c2nnc(S)n2-c2ccccc2)n1-c1ccccc1`, the GI50 [1] was 22.7 µM (inactive), the GI50 [2] was 28.1 µM (inactive) and the GI50 [4] was 45 µM (inactive). The GI50 [43] was 46.9 µM (inactive), the GI50 [44] was 36.6 µM (inactive) and the GI50 [5] was 23.7 µM (inactive). For the same compound, the GI50 [6] was 47.9 µM (inactive), the GI50 [7] was 30.1 µM (inactive) and the GI50 [8] was 42.5 µM (inactive). For the same compound, the GI50 [45] was 58.3 µM (inactive), the GI50 [9] was 72.6 µM (inactive) and the GI50 [10] was 34.8 µM (inactive). For the same compound, the GI50 [11] was 52.8 µM (inactive), the GI50 [46] was 37 µM (inactive) and the GI50 [12] was 63.1 µM (inactive). The GI50 [13] was 26.9 µM (inactive), the GI50 [14] was 43.1 µM (inactive) and the GI50 [47] was 40.8 µM (inactive). For the same compound, the GI50 [15] was 69.7 µM (inactive), the GI50 [16] was 23.9 µM (inactive) and the GI50 [48] was 60.3 µM (inactive). For the same compound, the GI50 [17] was 40.4 µM (inactive), the GI50 [18] was 31.3 µM (inactive) and the GI50 [19] was 35.5 µM (inactive). The GI50 [20] was 84.1 µM (inactive), the GI50 [49] was 22.8 µM (inactive) and the GI50 [21] was 35.6 µM (inactive). The GI50 [50] was 37.1 µM (inactive), the GI50 [22] was 29.7 µM (inactive) and the GI50 [23] was 32.1 µM (inactive). The GI50 [51] was 27 µM (inactive), the GI50 [25] was 38.3 µM (inactive) and the GI50 [52] was 32.5 µM (inactive). For the same compound, the GI50 [26] was 17.8 µM (inactive), the GI50 [27] was 56.6 µM (inactive) and the GI50 [54] was 44.6 µM (inactive). The GI50 [28] was 26.5 µM (inactive), the GI50 [29] was 37.5 µM (inactive) and the GI50 [30] was 22.9 µM (inactive). The GI50 [31] was 56.6 µM (inactive), the GI50 [32] was 32.4 µM (inactive) and the GI50 [55] was 52.7 µM (inactive). The GI50 [33] was 20 µM (inactive), the GI50 [34] was 58.5 µM (inactive) and the GI50 [35] was 34.4 µM (inactive). For the same compound, the GI50 [36] was 28.8 µM (inactive), the GI50 [38] was 51.6 µM (inactive) and the GI50 [56] was 37.2 µM (inactive). For the same compound, the GI50 [39] was 44.3 µM (inactive), the GI50 [40] was 34.3 µM and the GI50 [41] was 27.2 µM (inactive). The GI50 [57] was 16.4 µM (inactive), the GI50 [58] was 19.5 µM (inactive) and the GI50 [42] was 26.7 µM (inactive).

— ChEMBL document CHEMBL1201862, “PubChem BioAssay data set” (2004)
